Each structure is given as a SMILES string.

The results in this text go back to patent US10344026B2, “Compositions and methods of targeting mutant K-ras” (NANTBIO, INC., priority 2017, dated 2019).

What all share (assay type): cell-based
In assay [1] the target is T1, wild type K-Ras (Homo sapiens, UniProt P01116).
T1 construct: expressed in transfected cells; host or cells: 293H cells
The assay can be described thus: G-LISA Ras activation, 293H cells transfected with Ras wild-type, EGF stimulated. Conditions: compound 1 hour, then 100 ng/ml EGF 2 minutes. The protocol: 293H cells were seeded in 6-wells at 0.6×10^6 cells per well and transfected next day with 5 μg of Ras wild-type, or G12C, G12D or G12V mutant DNA plasmid vector using transfection reagent Lipofectamine 3000. Next day cells were treated with 3.125-25 μM of Ras compounds for 1 hour. Wild-type transfected cells were subsequently treated with 100 ng/ml EGF for 2 minutes. Cells were washed once in ice-cold PBS, lysed in complete lysis buffer on ice, and processed by G-LISA according to Cytoskeleton protocol.

Assay [2] concerns Ishikawa (K-Ras wild type cell line). The assay is described as follows: Viability assay (CellTiterBlue, 72 hr) Ishikawa. The settings on record: Homo sapiens, GI50, CellTiterBlue, Ishikawa K-Ras wild-type. The gist of the method: (§1)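 GI50 calculation uses a window set by DMSO-treated wells (100% viability) and 100 uM tamoxifen (0%). Cells (1000/well) sit 18 hr at 37 °C, receive compound for 72 hr in 0.5% DMSO, then get CellTiterBlue for 3 hr before reading at Ex550/Em590.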
In general terms: The colour change of resazurin is a common sign of viable cells or microbes.

For assay [3], the system named is U87-MG (K-Ras wild type cell line). The assay can be described thus: Viability assay (CellTiterBlue, 72 hr) U87-MG. The settings on record: Homo sapiens, U-87 MG, GI50, CellTiterBlue, U87-MG K-Ras wild-type. The gist of the method: as §1
The test system of assay [4] is Panc1-G12D. The assay can be described thus: Viability assay (CellTiterBlue, 72 hr) Panc1. The settings on record: Homo sapiens, PANC-1, GI50, CellTiterBlue, Panc1 K-Ras G12D, read-out: 72 hr Cell Viability Panc1 (G12D). In a few lines: as §1
Assay [5] relates to Panc10.05-G12D. The assay is described as follows: Viability assay (CellTiterBlue, 72 hr) Panc10.05. Conditions: Homo sapiens, Panc1005, GI50, CellTiterBlue, Panc10.05 K-Ras G12D, read-out: 72 hr Cell Viability Panc10.05 (G12D). In a few lines:
as §1

Assay [6] relates to HCT116-G31D. The assay can be described thus: Viability assay (CellTiterBlue, 72 hr) HCT116. Conditions: Homo sapiens, HCT-116, GI50, CellTiterBlue, HCT116 K-Ras G13D, read-out: 72 hr Cell Viability HCT116 (G13D). In a few lines: as §1
In assay [7] the test system is phospho-ERK in Panc1 (G12D). The assay can be described thus: In-Cell Western phospho-ERK, Panc1. Conditions: Homo sapiens, PANC-1, 1 h; Panc1, one hour treatment; read-out: In-Cell Western Panc1 (G12D) Erk (P). In a few lines: (§2)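 In-cell immunofluorescence: after 1 h compound exposure (final DMSO 0.5%) of cells plated 18 h beforehand, fixed cells were probed overnight at 4 °C with phospho-Akt/phospho-ERK antibodies and imaged. Maximal inhibition defined by 1 uM MEK Inhibitor II for pERK, 1 uM BEZ235 for pAkt; EC50 calculated.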

Assay [8] relates to phospho-Akt in Panc1 (G12D). The assay is described as follows: In-Cell Western phospho-Akt, Panc1. Conditions: Homo sapiens, PANC-1, 1 h; Panc1, one hour treatment; read-out: In-Cell Western Panc1 (G12D) Akt (P). The gist of the method: as §2
For assay [9], the system named is phospho-ERK in Panc10.05 (G12D). The assay can be described thus: In-Cell Western phospho-ERK, Panc10.05. The settings on record: Homo sapiens, Panc1005, 1 h; Panc10.05, one hour treatment; read-out: In-Cell Western Panc10.05 (G12D) Erk (P). The gist of the method: as §2
Assay [10] deals with phospho-Akt in Panc10.05 (G12D). The assay can be described thus: In-Cell Western phospho-Akt, Panc10.05. Conditions: Homo sapiens, Panc1005, 1 h; Panc10.05, one hour treatment; read-out: In-Cell Western Panc10.05 (G12D) Akt (P). The protocol: (§3) In-cell phosphorylation assays for Erk and Akt were performed on several of the compounds and exemplary results are shown in Table 3 below using HCC827 and A375 cell lines for wild type K-Ras and Panc1 and Panc10.05 cell lines for G12D K-Ras mutants. Results are expressed in μM and corresponding structures are shown in FIGS. 2A-2G and Examples 1-152, above.
(§4) Cells are seeded in complete medium into black sided, clear-bottom 384-well microplates at 3000 cells/[…]/well. Plates are returned to 37° C. CO2 incubator for 18 hr. Drug is made as 200× in DMSO and diluted into medium to 10×. To each well is added 4 ul 10× test article or controls, and plates are returned to the incubator. Final assay DMSO concentration is 0.5%. After one hour, cells are fixed in formaldehyde, rinsed & permeabilized with triton X-100, and blocked with BSA/Goat serum blocking solution. Primary phospho-Akt and phospho-ERK antibodies are added and plates are incubated overnight at 4° C. Plates are rinsed with Tween-20 wash buffer and secondary antibody (Goat anti-rabbit, Thermofisher) is added. After 2 hours, plates are rinsed in Tween-20 wash buffer, and then PBS. Plates are imaged on the Celigo (Nexcelom) and cellular fluorescence is quantitated. Full inhibition of phospho-Akt is achieved with 1 uM BEZ235 (Sellekchem), while full inhibition of phospho-ERK is achieved with 1 uM MEK Inhibitor II Calbiochem). EC50 values are calculated using Graphpad Prism.

Assay [11] deals with T2, K-Ras G12D (Homo sapiens, UniProt P01116, G12D).
T2 construct: expressed in transfected cells; host or cells: 293H cells
T2 sequence (P01116 whole entry G12D): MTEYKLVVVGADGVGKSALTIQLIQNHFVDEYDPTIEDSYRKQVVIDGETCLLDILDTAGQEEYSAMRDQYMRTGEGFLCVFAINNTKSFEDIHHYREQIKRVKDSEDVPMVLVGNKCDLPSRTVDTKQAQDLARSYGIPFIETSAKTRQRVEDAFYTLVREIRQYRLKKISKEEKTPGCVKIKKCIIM
The assay is described as follows: G-LISA Ras activation, 293H cells transfected with G12D mutant. The settings on record: compound 1 hour. In a few lines:
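Mutant or wild-type Ras was expressed transiently in 293H cells, which were incubated 1 hour with compound across 3.125-25 μM. G-LISA on cold lysates gave Ras activation, wild-type cells having first been EGF-stimulated (100 ng/ml, 2 min).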

Assay [12] has as its system HCC827 (K-Ras wild type cell line). The assay can be described thus: Viability assay (CellTiterBlue, 72 hr) HCC827. Conditions: Homo sapiens, GI50, CellTiterBlue, HCC827 K-Ras wild-type. In a few lines: as §1
Assay [13] has as its system A375 (K-Ras wild type cell line). The assay is described as follows: Viability assay (CellTiterBlue, 72 hr) A375. Conditions: Homo sapiens, A-375, GI50, CellTiterBlue. The protocol:
Viability assays were performed on exemplary compounds and Table 2 below lists exemplary results for selected compounds tested on K-Ras wild type cell lines (Ishikawa, U87-MG, HCC827, and A375) and various K-Ras mutant cell lines (Panc1-G12D; Panc10.05-G12D; HCT116-G31D). Results are expressed in μM and corresponding structures are shown in FIGS. 2A-2G and Examples 1-152, above.
Cells are counted and seeded at 1000 cells/36 ul medium/well into 384-well microplates. Cells are returned to 37° C. CO2 incubator for 18 hr. Drug is made as 200× in DMSO and diluted into medium to 10×. To each well is added 4 ul 10× drug, and plates are returned to the incubator. Final assay DMSO concentration is 0.5%. After 72 hr, 8 ul CellTiterBlue (Promega) is added to each well. After 3 hr, fluorescence (Ex550/Em590) is determined on the Victor Plate Reader (Perkin Elmer). Assay range is determined by DMSO control (100% viability) and 100 uM tamoxifen (0% viability). GI50 values are calculated using Graphpad Prism.

For assay [14], the system named is phospho-ERK in HCC827 (Wild-type). The assay can be described thus: In-Cell Western phospho-ERK, HCC827. The settings on record: Homo sapiens, 1 h; HCC827, one hour treatment; read-out: In-Cell Western HCC827 (Wild-type) Erk (P). The procedure: as §3, §4
Assay [15] relates to phospho-ERK in A375 (Wild-type). The assay can be described thus: In-Cell Western phospho-ERK, A375. The settings on record: Homo sapiens, A-375, 1 h; A375, one hour treatment; read-out: In-Cell Western A375 (Wild-type) Erk (P). The protocol: as §3, §4
Assay [16] has as its system phospho-Akt in A375 (Wild-type). The assay is described as follows: In-Cell Western phospho-Akt, A375. The settings on record: Homo sapiens, A-375, 1 h; A375, one hour treatment; read-out: In-Cell Western A375 (Wild-type) Akt (P). The procedure: as §3, §4

T1 sequence (P01116 whole entry): as the sequence (P01116 whole entry G12D) above, with D12G counted along it

In the case of `Cc1nc(CNC(=O)OC(C)(C)C)sc1C(=O)Nc1nc(-c2ccc3c(c2)CCC(=O)N3)cs1` [Compound 143, tert-butyl ((4-methyl-5-((4-(2-oxo-1,2,3,4-tetrahydroquinolin-6-yl)thiazol-2-yl)carbamoyl)thiazol-2-yl)methyl)carbamate], the IC50 in assay [1] was 19 µM; in assay [2] it was more than 25 µM; in assay [3], 9 µM; in assay [4], 7 µM; in assay [5] it was 4 µM; in assay [6] it was more than 25 µM. Also, the EC50 worked out at 8 µM in [7], 14 µM in [8], 8 µM in assay [9] and 12 µM in [10].
With `Cn1nccc1C(=O)Nc1nc(-c2ccc3c(c2)CCC(=O)N3)cs1` [Compound 51, 1-methyl-N-(4-(2-oxo-1,2,3,4-tetrahydroquinolin-6-yl)thiazol-2-yl)-1H-pyrazole-5-carboxamide], the IC50 in assay [11] was 21.5 µM; in [2], more than 25 µM; in [3], more than 25 µM; in assay [12], more than 25 µM; in assay [13] it was more than 25 µM; in assay [4], more than 25 µM. The IC50 in assay [5] and in [6] was more than 25 µM throughout. Moreover, the EC50 is more than 25 µM in assay [14]; more than 25 µM in [15]; more than 25 µM in [16]; more than 25 µM in assay [7]; more than 25 µM in assay [8]; 25 µM in assay [9].
Take `Cc1cc(C(=O)Nc2nc(-c3ccc4c(c3)CCC(=O)N4)cs2)n(C)n1` [Compound 22, 1,3-dimethyl-N-(4-(2-oxo-1,2,3,4-tetrahydroquinolin-6-yl)thiazol-2-yl)-1H-pyrazole-5-carboxamide]: the IC50 in [1] worked out at 12.6 µM; in assay [11] it was 4.6 µM; in assay [2] it was 4 µM; in [12], 22 µM; in [4], 1.3 µM; in assay [5], 0.734 µM. The IC50 in assay [6] was more than 25 µM. Besides, the EC50 in assay [7] was more than 25 µM; in assay [8], more than 25 µM; in assay [9] it was more than 25 µM; in [10], 27 µM.
Take `Cc1nc(C(C)C)sc1C(=O)Nc1nc(-c2ccc3c(c2)CCC(=O)N3)cs1` [Compound 3, 2-isopropyl-4-methyl-N-(4-(2-oxo-1,2,3,4-tetrahydroquinolin-6-yl)thiazol-2-yl)thiazole-5-carboxamide]: the IC50 in assay [1] was 12 µM; in assay [2], more than 25 µM; in assay [3], 12 µM; in [4] it was 5.5 µM; in [5] it was 14 µM; in assay [6] it was 18 µM. The EC50 in assay [7] turned out to be 2 µM; in [8], 9 µM; in [9] it was 3 µM; in assay [10] it was 8 µM.
For the compound `Cc1nc(C2CCCC2)sc1C(=O)Nc1nc(-c2ccc3c(c2)CCC(=O)N3)cs1` [Compound 145, 2-cyclopentyl-4-methyl-N-(4-(2-oxo-1,2,3,4-tetrahydroquinolin-6-yl)thiazol-2-yl)thiazole-5-carboxamide], the IC50 in assay [1] is more than 25 µM; in [11], 24 µM; in assay [2] it was more than 25 µM; in assay [3] it was 16 µM; in assay [4] it was 11 µM; in assay [5], 7 µM. In addition, in [6], the IC50 was more than 25 µM. Also, the EC50 in [7] turned out to be 5 µM; in assay [8], 18 µM; in [9], 7 µM; in [10], 17 µM.
On to `CCc1nc(C)c(C(=O)Nc2nc(-c3ccc4c(c3)CCC(=O)N4)cs2)o1` [Compound 5, 2-ethyl-4-methyl-N-(4-(2-oxo-1,2,3,4-tetrahydroquinolin-6-yl)thiazol-2-yl)oxazole-5-carboxamide], for which the IC50 in assay [1] is 14.1 µM; in [11], 10.2 µM; in assay [2], more than 25 µM; in [3], more than 25 µM; in assay [4], 6 µM; in assay [5] it was 19 µM. In addition, in assay [6], the IC50 came out at 22 µM. Besides, the figures for the EC50 in assay [8] and in assay [10] were 13 µM and 8 µM, respectively.
Take `Cc1nn(C)cc1C(=O)Nc1nc(-c2ccc3c(c2)CCC(=O)N3)cs1` [Compound 21, 1,3-dimethyl-N-(4-(2-oxo-1,2,3,4-tetrahydroquinolin-6-yl)thiazol-2-yl)-1H-pyrazole-4-carboxamide]: the IC50 in [1] was 17.1 µM; in [11], 3.8 µM; in [2], 5 µM; in assay [12], 6 µM; in assay [4], 2 µM; in assay [5], 0.797 µM. Besides, in assay [6], the IC50 was determined as 10 µM. The EC50 is more than 25 µM in [7], 12 µM in [8], more than 25 µM in assay [9] and 8 µM in assay [10].
